Test results published in patent US8030498B2, “Benzoylpyrazole compounds and herbicides containing them” (Ishihara Sangyo Kaisha, Ltd., priority 2005, dated 2011).

Key:
[1] = test system: soybean (Glycine max Merr.); experiment: Test Example 1: foliar treatment, growth inhibition rate, soybean; format: in vivo; conditions: 31 g/ha active ingredient, visually observed 17th to 23rd day after application
In short: (§1)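 Visual scoring of growth inhibition, 0% (untreated) to 100% (complete kill), on days 17–23 following post-emergence spray of formulated compound in water (500 L/ha, 0.1 vol % spreader); plants treated at set leaf stages, e.g. corn 2.0–3.5, wheat 1.7–3.4.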

[2] = test system: velvetleaf (Abutilon theophrasti MEDIC.); experiment: Test Example 1: foliar treatment, growth inhibition rate, velvetleaf; format: in vivo; conditions: 31 g/ha active ingredient, visually observed 17th to 23rd day after application
In short: (§2)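 Post-emergence foliar spray, pot test; WP/EC formulation in water at 500 L/ha, + 0.1 vol % spreader; leaf stage at treatment: corn 2.0–3.5, green foxtail 1.0–3.0, rice 1.0–2.5, wheat 1.7–3.4; visual % inhibition at 17–23 DAT (0 = untreated, 100 = dead).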

[3] = test system: greenfoxtail (Setaria viridis L.); experiment: Test Example 1: foliar treatment, growth inhibition rate, greenfoxtail; format: in vivo; conditions: 31 g/ha active ingredient, visually observed 17th to 23rd day after application
In short: (§3)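 Seeds were sown in upland field soil in pots. At the target leaf stage (corn 2.0–3.5; greenfoxtail 1.0–3.0; rice 1.0–2.5; wheat 1.7–3.4), the formulated compound, diluted at a water volume of 500 L/ha with 0.1 vol % spreader, was applied by small sprayer. Plants were rated by eye on days 17–23.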

[4] = test system: redroot pigweed (Amaranthus retroflexus L.); experiment: Test Example 1: foliar treatment, growth inhibition rate, redroot pigweed; format: in vivo; conditions: 31 g/ha active ingredient, visually observed 17th to 23rd day after application
In short: as §1

wheat = experiment: Test Example 2: soil application on the day after sowing, growth inhibition rate, wheat; format: in vivo, Triticum spp.; conditions: 250 g/ha active ingredient, observed on 19th to 24th day
In short: (§4)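 Pre-emergence soil treatment: one day post-sowing in upland soil, compound formulations at set active-ingredient rates were applied in 500 L/ha water. Visual rating of growth inhibition (0% untreated-equivalent to 100% complete kill) followed on days 19–24 after application.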

rice = experiment: Test Example 2: soil application on the day after sowing, growth inhibition rate, rice; format: in vivo, Oryza sativa L.; conditions: 250 g/ha active ingredient, observed on 19th to 24th day
In short: as §4

[5] = test system: barnyardgrass (Echinochloa crus-galli L.); experiment: Test Example 1: foliar treatment, growth inhibition rate, barnyardgrass; format: in vivo; conditions: 31 g/ha active ingredient, visually observed 17th to 23rd day after application
In short: as §2

soybean = experiment: Test Example 2: soil application on the day after sowing, growth inhibition rate, soybean; format: in vivo, Glycine max Merr.; conditions: 250 g/ha active ingredient, observed on 19th to 24th day
In short: as §4

redroot pigweed = experiment: Test Example 2: soil application on the day after sowing, growth inhibition rate, redroot pigweed; format: in vivo, Amaranthus retroflexus L.; conditions: 250 g/ha active ingredient, observed on 19th to 24th day
In short: as §4

crabgrass = experiment: Test Example 2: soil application on the day after sowing, growth inhibition rate, crabgrass; format: in vivo, Digitaria sanguinalis L.; conditions: 250 g/ha active ingredient, observed on 19th to 24th day
In short: as §4

rice (Oryza sativa L.) = experiment: Test Example 1: foliar treatment, growth inhibition rate, rice; format: in vivo; conditions: 31 g/ha active ingredient, visually observed 17th to 23rd day after application
In short: as §3

barnyardgrass = experiment: Test Example 2: soil application on the day after sowing, growth inhibition rate, barnyardgrass; format: in vivo, Echinochloa crus-galli L.; conditions: 250 g/ha active ingredient, observed on 19th to 24th day
In short: as §4

[6] = test system: crabgrass (Digitaria sanguinalis L.); experiment: Test Example 1: foliar treatment, growth inhibition rate, crabgrass; format: in vivo; conditions: 31 g/ha active ingredient, visually observed 17th to 23rd day after application
In short: as §1

prickly sida = experiment: Test Example 2: soil application on the day after sowing, growth inhibition rate, prickly sida; format: in vivo, Sida spinosa L.; conditions: 250 g/ha active ingredient, observed on 19th to 24th day
In short: as §4

[7] = test system: prickly sida (Sida spinosa L.); experiment: Test Example 1: foliar treatment, growth inhibition rate, prickly sida; format: in vivo; conditions: 31 g/ha active ingredient, visually observed 17th to 23rd day after application
In short: as §1

greenfoxtail = experiment: Test Example 2: soil application on the day after sowing, growth inhibition rate, greenfoxtail; format: in vivo, Setaria viridis L.; conditions: 250 g/ha active ingredient, observed on 19th to 24th day
In short: as §4

velvetleaf = experiment: Test Example 2: soil application on the day after sowing, growth inhibition rate, velvetleaf; format: in vivo, Abutilon theophrasti MEDIC.; conditions: 250 g/ha active ingredient, observed on 19th to 24th day
In short: as §4

corn (Zea mays L.) = experiment: Test Example 1: foliar treatment, growth inhibition rate, corn; format: in vivo; conditions: 31 g/ha active ingredient, visually observed 17th to 23rd day after application
In short: as §3

wheat (Triticum spp.) = experiment: Test Example 1: foliar treatment, growth inhibition rate, wheat; format: in vivo; conditions: 31 g/ha active ingredient, visually observed 17th to 23rd day after application
In short: as §3

corn = experiment: Test Example 2: soil application on the day after sowing, growth inhibition rate, corn; format: in vivo, Zea mays L.; conditions: 250 g/ha active ingredient, observed on 19th to 24th day
In short: as §4

SMILES | Growth inhibition rate (%) Soybean [1] | Growth inhibition rate (%) Velvetleaf [2] | Growth inhibition rate (%) Greenfoxtail [3] | Growth inhibition rate (%) redroot pigweed [4] | Growth inhibition rate (%) Wheat (wheat) | Growth inhibition rate (%) Rice (rice) | Growth inhibition rate (%) Barnyardgrass [5] | Growth inhibition rate (%) Soybean (soybean) | Growth inhibition rate (%) redroot pigweed (redroot pigweed) | Growth inhibition rate (%) Crabgrass (crabgrass) | Growth inhibition rate (%) Rice (rice (Oryza sativa L.)) | Growth inhibition rate (%) Barnyardgrass (barnyardgrass) | Growth inhibition rate (%) Crabgrass [6] | Growth inhibition rate (%) Prickly sida (prickly sida) | Growth inhibition rate (%) Prickly sida [7] | Growth inhibition rate (%) Greenfoxtail (greenfoxtail) | Growth inhibition rate (%) Velvetleaf (velvetleaf) | Growth inhibition rate (%) Corn (corn (Zea mays L.)) | Growth inhibition rate (%) Wheat (wheat (Triticum spp.)) | Growth inhibition rate (%) Corn (corn)
COC(=O)c1c(S(C)(=O)=O)ccc(C(=O)c2cnn(C)c2OC(=O)SC(C)C)c1C [compound 86] | 85% | 95% | 95% | 95% | 0% | 90% | 95% | 0% | 100% | 100% | 95% | 95% | 90% | 90% | 80% | 95% | 95% | 30% | 20% | 0%
CCSC(=O)Oc1c(C(=O)c2ccc(S(C)(=O)=O)c(OC3CCOC3)c2C)cnn1C (centres unmarked) [compound 217] | 98% | 80% | 98% | 100% | 0% | 80% | 100% | 0% | 95% | 95% | 90% | 80% | 100% | 60% | 70% | 60% | 20% | 0% | 40% | 0%
COC(=O)c1c(S(C)(=O)=O)ccc(C(=O)c2cnn(C)c2OC(=O)SC)c1C [Compound No. 3] | 95% | 95% | 100% | 90% | 0% | 95% | 95% | 40% | 100% | 100% | 100% | 60% | 95% | 95% | 90% | 60% | 70% | 60% | 50% | 0%
CCSC(=O)Oc1c(C(=O)c2ccc(S(C)(=O)=O)c(CN(C)CC#N)c2C)cnn1C [compound 210] | 50% | 60% | 50% | 10% | 0% | 0% | 80% | 0% | 20% | 10% | 50% | 0% | 30% | 40% | 70% | 0% | 0% | 0% | 0% | 0%
